Measured values as given in patent US20230097753A1, “ALPHA-HYDROXYLATED FATTY-ACID METABOLITES, MEDICAL USES AND USE AS BIOMARKERS” (UNIVERSITAT DE LES ILLES BALEARS, priority 2020, published 2023).

Key:
[1] = system: A549; assay: IC50 in tumor cell cultures (cell survival, XTT / trypan blue); format: cell-based; settings: A549 human lung adenocarcinoma cell line
Experimental: (§1) Cell survival was analyzed in a Barker chamber using trypan blue vital exclusion staining (Scharlab) or by cell proliferation kit II (Roche). Briefly, the cells were seeded in 96-well plates at a density of 3 x 10^3 cells per well 24 h prior to treatment, and then cultured in the presence or absence of compounds of interest at the concentrations and for the times indicated in the figures. After different times, plaque viable cells were determined by the addition of XTT according to the manufacturers instructions. Cells were incubated at 37° C. in 5% CO2 until a constant color was developed and absorbance was recorded at 495 nm using a microplate reader with a reference wavelength of 650 nm (FLUOstar Omega, BMG LABTECH, Germany).
(§2) The anti-tumor activity of the different metabolites described in FIGS. 8 and 9 was determined by direct treatment with these molecules (HDA or C17:2 ω-6, HTA ω-3 or C17:3 ω-3, HTA ω-6 or C17:3 ω-6, NTA or C19:4 ω-6, NPA or C19:5 ω-3, and HPA or C21:5 ω-3) in tumor cell cultures, on which the IC50 value for each of these compounds was determined (Inhibitory Concentration 50: concentration of study compound that induces death of 50% of the tumor cell population).

[2] = system: MIA-PaCa 2; assay: as above; format: cell-based; settings: Homo sapiens; MIA-PaCa 2 pancreatic cancer cell line
Experimental: as §1, §2

[3] = system: 5xFAD mice; assay: Radial arm maze test in 5xFAD model of Alzheimer's disease; format: in vivo, mouse; settings: 20 mg/kg/day, 3 to 7 months of age
Experimental: FIG. 6. A, B and C: Chronic treatment with HPA acid or its prodrug, DHA-H, prevents cognitive decline typical of Alzheimer's disease in the murine transgenic model (5xFAD). Cognitive assessment was performed by the 8-arm Radial Labyrinth test. The animals received treatment between 3 and 7 months of age and the test was performed during the last month of treatment. During this test, the total errors made during the test (A), the reference memory errors (RME) (B) and the working memory errors (WME) (C) were taken into account. Each column represents the mean±SEM of errors during the last week of the radial labyrinth test. The black columns represent the errors made by WT mice. The blank columns represent the errors made by the 5xFAD transgenic mice treated with the vehicle (5% ethanol). Striped columns represent errors made by 5xFAD mice treated with DHA-H (20 mg/kg/day). Boxed columns represent errors made by 5xFAD mice treated with HPA (20 mg/kg/day). […] The bars represent the mean±standard error for each treatment condition and the statistical analysis was performed by unidirectional ANOVA and the Tukey multiple evaluation test: *p<0.05 when compared to healthy control (WT) and #p<0.05 when compared to 5xFAD control condition (treated with the vehicle). […]

Question: For `CC/C=C\C/C=C\C/C=C\C/C=C\C/C=C\CCCCC(=O)O` [HPA, (6Z,9Z,12Z,15Z,18Z)-heneicosa-6,9,12,15,18-pentaenoic acid], which IC50 [1] is on record?
Answer: The IC50 was 228 ± 3 µM.

Question: And the IC50 [2]?
Answer: Its IC50 is 58 ± 17 µM.

Question: And the “Cognition in 8-arm radial labyrinth test (total errors, RME, WME)” value [3]?
Answer: Its value is “cognitive improvement”.

Question: Which “Cognition in 8-arm radial labyrinth test (total errors, RME, WME)” value [3] does the source give for `CCC=CCC=CCC=CCC=CCC=CCC=CCC(O)C(=O)O` (stereo not shown) [DHA-H, 2-hydroxy-drocosahexaenoic acid] here?
Answer: The value was “cognitive improvement”.
